Key:
[1] = test system: neuronal cells infected with LV-α-synuclein; assay: Calcein assay of membrane integrity (FLIPR); format: cell-based; conditions: for Percent reversal of α-Syn mediated disruption of cell integrity (0.01 μM test compound): calcein assay
Procedure: (§1) Next, to ascertain the effects on neuronal activity, cells were infected with LV-α-synuclein for 24 h, treated with Example 2 at 0, 0.01, 0.1 and 1 μM for 24 h in serum free media, loaded with Fluo-4 or calcein, and analyzed by FLIPR assay to determine Ca^2+ and calcein levels. […] Finally, to examine the effects Example 2 on neuronal survival, an MTT cell viability assay was performed. […] All cell free and cell based assays were repeated at least 3 times and experiments were performed blinded to sample identity.

[2] = test system: neuronal cells infected with LV-α-synuclein; assay: Ca2+ levels by FLIPR assay (Fluo-4); format: cell-based; conditions: 0, 0.01, 0.1 and 1 μM for 24 h in serum free media, Fluo-4 (FIG. 3B)
Procedure: as §1

[3] = test system: Neuronal cells expressing high levels of α-synuclein; assay: Neurite outgrowth (Tubulin III antibody); format: cell-based; conditions: 0.1 and 1.0 μM (FIG. 3A)
[4] = biological target: T1, α-synuclein (wild type) expressed by lentivirus in a neuronal cell line (Homo sapiens, UniProt P37840); assay: Cell-based α-synuclein aggregation by immunoblot; conditions: soluble and insoluble fractions; test compound 0, 0.1, 1 and 10 μM for 24 h
T1 construct: expressed in transfected cells

Recombinant α-synuclein = Recombinant α-synuclein (Homo sapiens, UniProt P37840); assay: Cell-free α-synuclein aggregation assay (SDS-PAGE, immunoblot); format: biochemical; conditions: 10 μM α-synuclein, 37° C. 16 h then 56° C. 6 h, immunoblot (FIG. 1)
Procedure: Recombinant α-synuclein (10 μM) are incubated at 37° C. for 16 h and then at 56° C. for 6 h with test compound. […] After incubation, the mixture is run on a SDS-PAGE gel, followed by immunoblot testing with α-synuclein antibodies.

[5] = biological target: T1, α-synuclein (wild type) expressed by lentivirus in a neuronal cell line; assay: Cell-based α-synuclein accumulation by confocal microscopy; conditions: test compound 0, 0.1, 1 and 10 μM for 24 h (FIG. 2)
neuronal cells = assay: MTT cell viability assay; format: cell-based
Procedure: as §1

Q: How did the “Percent reversal of α-Syn mediated disruption of cell integrity (0.01 μM test compound)” value (“Percent reversal” below) [1] turn out when `CCc1cc(NC(=O)NCCc2cnc[nH]2)ccc1Cc1c[nH]c2ccccc12` [Example 6, 1-(2-(1H-imidazol-5-yl)ethyl)-3-(4-((1H-indol-3-yl)methyl)-3-ethylphenyl)urea] was run?
A: Its value is 37.5%.

Q: With `CCc1cc(NC(=O)NCCN2CCNCC2)ccc1Cc1c[nH]c2ccccc12` [Example 5, 1-(4-((1H-Indol-3-yl)methyl)-3-ethylphenyl)-3-(2-(piperazin-1-yl)ethyl)urea] as the compound, how does the “Percent reversal” value [1] read?
A: The value was 89.5%.

Q: How did the “Percent reversal” value [1] turn out when `CCc1cc(NC(=O)NCCN2CCN(C)CC2)ccc1Cc1c[nH]c2ccccc12` [Example 3, 1-(4-((1H-indol-3-yl)methyl)-3-ethylphenyl)-3-(2-(4-methylpiperazin-1-yl)ethyl)urea] was run?
A: Its value is 18.9%.

Q: With `CCc1cc(NC(=O)NCCN)ccc1Cc1c[nH]c2ccccc12` [Example 4, 1-(4-((1H-indol-3-yl)methyl)-3-ethylphenyl)-3-(2-aminoethyl)urea] as the compound, how does the “Percent reversal” value [1] read?
A: The value was 25.9%.

Q: `CCCCc1cc(OCc2c[nH]c3ccccc23)cc(OC(=O)NCCN2CCN(C)CC2)c1` [Example 1] was tested. Which “Percent reversal” value [1] did it give?
A: Its value is 26.8%.

Q: For `CCCCc1cc(NC(=O)NCCN2CCN(C)CC2)cc(O)c1Cc1c[nH]c2ccccc12` [Example 2, 1-(4-((1H-Indol-3-yl)methyl)-3-butyl-5-hydroxyphenyl)-3-(2-(4-methylpiperazin-1-yl)ethyl)urea], which “effect on Ca2+ levels” value [2] is on record?
A: The value was “restored concentrations of Ca^2+ to those in cells not infected with LV-α-synuclein”.

Q: What about the “effect on calcein retention in the cytoplasm” value ([1]; 0, 0.01, 0.1 and 1 μM for 24 h in serum free media (FIG. 3C)) of the same compound?
A: Its value is “reversed the effect of α-synuclein on levels of calcein”.

Q: And the “Percent reversal” value [1]?
A: The value was 34.1%.

Q: And the “effect on neurite extension and cellular morphology” value [3]?
A: Its value is “ameliorated the deleterious effects on neurite extension and improved cellular morphology”.

Q: What about the “reduction in the levels of aggregates in the various fractions (immunoblot)” value [4] of the same compound?
A: Its value is 50-60%.

Q: What about the “inhibition of aggregation of α-synuclein into oligomers” value (Recombinant α-synuclein) of the same compound?
A: The value was “capable of inhibiting the aggregation of α-synuclein into oligomers in a concentration-dependent manner”.

Q: And the “reduction in the level of aggregates in the neuronal cell bodies and neurites (confocal microscopy)” value [5]?
A: Its value is 60-65%.

Q: And the “toxicity in MTT cell viability assay” value (neuronal cells; at 10 μM (FIG. 3D))?
A: The value was “mild toxicity”.

Q: What about the “toxic effects in MTT cell viability assay” value (neuronal cells; doses ranging from 0.1-10 μM (FIG. 3D)) of the same compound?
A: The value was “no toxic effects”.

— patent US9527852B2 (Neuropore Therapies, Inc., priority 2012, dated 2016)
